Our source for the EC50 and CC50 values is patent publication US20230203004A1, “RSV INHIBITING 3-SUBSTITUTED QUINOLINE AND CINNOLINE DERIVATIVES” (Janssen Sciences Ireland Unlimited Company, priority 2020, published 2023).

For series [1], the system named is rgRSV224 virus. The series can be described thus: Antiviral activity: rgRSV224 (GFP) replication in HeLa cells. Format: cell-based, respiratory syncytial virus (RSV). To be noted: read-out: RSV HELA EC50; HeLa cells, rgRSV224 MOI = 1, GFP expression three days post-virus exposure; averaged data of several repeat experiments. In outline:
(§1)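 HeLa cells infected with GFP-expressing rgRSV224 at MOI 1 in RPMI/10% FBS, 0.05% DMSO, with 9 serial 4-fold compound dilutions; 3 days at 37 °C, GFP read by laser microscopy for EC50. Cytotoxicity: uninfected HeLa cells, 3 days, cellular ATP (ATPlite) for CC50.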

Series [2] relates to HeLa cells. The series is described as follows: Cytotoxicity in HeLa cells (ATP content, ATPlite kit). Format: cell-based. To be noted: human, 3 days. In outline: as §1
(In general: Cellular ATP, detected with luciferase, serves as a proxy for viable cell number.)

As usually defined, the EC50 is the midpoint of the concentration-response curve. By CC50 is commonly meant the concentration that lowers cell viability or growth by half. Higher therefore signals lower toxicity to the cells. On to `Cc1cc2cc(C(=O)NC[C@](O)(c3cc(C(C)(C)O)c(F)c(-c4ccc(F)cc4)n3)C3(F)CC3)cc(OC3CC3)c2nn1` [compound 317, (-)Cyclopropoxy-N-(2-(5-Fluoro-6-(4-Fluorophenyl)-4-(2-Hydroxypropan-2-yl)Pyridin-2-yl)-2-(1-Fluorocyclopropyl)-2-Hydroxyethyl)-3-Methylcinnoline-6-Carboxamide], for which the EC50 in series [1] worked out at 0.00087 µM. In series [2], the CC50 turned out to be 29 µM.
Consider `Cc1cc2cc(C(=O)NC[C@](O)(c3cc(C(C)(C)O)c(F)c(-c4ccc(F)cc4)n3)C3(F)CC3)cc(OC3CC3)c2nn1` [compound 335, (-)Cyclopropoxy-N-(2-(5-Fluoro-6-(4-Fluorophenyl)-4-(2-Hydroxypropan-2-yl)Pyridin-2-yl)-2-(1-Fluorocyclopropyl)-2-Hydroxyethyl)-3-Methylcinnoline-6-Carboxamide], for which the EC50 in series [1] came to 0.021 µM. The CC50 in series [2] is roughly 14 µM.
